According to patent US20100267637A1, “TREATMENT OF MELANOMA WITH ALPHA THYMOSIN PEPTIDES IN COMBINATION WITH A KINASE INHIBITOR” (SciClone Pharmaceuticals, Inc., priority 2007, published 2010):

System: murine B16 melanoma cells
Experiment: Anti-tumor effect: tumor size / tumor volume in mice bearing subcutaneous B16 melanoma
Type: in vivo, C57BL/6 mice
Set-up: key to Tumor measurement L (length) / Tumor measurement W (width): The sign “—” indicates that tumor does not reach a measurable size
Conditions: for Tumor Volume (cm^3) (Mean ± SD): group mean; for PI (TV), percent inhibition of tumor volume: vs vehicle; for Tumor volumes on Day 15: Length × Width × Width/2
Experimental: The toxic effects of the dosing regimens were also monitored. […] Meanwhile 9H10 was given in two groups via i.p. on Day 3, 6 and 9. […] Tumor volume and body weight were measured every three days, and tumor weights were measured on Day 16 at the end of the study.
As per aseptic tissue culture procedures, one vial of B16 melanoma cells was removed from the liquid nitrogen stock, and placed into a 37° C. water bath. Gentle swirling was conducted until the content of the vial was thawed. Using tissue culture/sterile procedures, the cells were immediately centrifuged with a TD5A-WS centrifuge at 1000 rpm, 20-25° C., 5 min. After centrifugation, the cells were suspended in 0.1 to 0.5 mL normal saline (NS) and subcutaneously injected into 10 mice (0.1 mL/mouse, about 1×10^6 cells). After 7-10 days, when the tumor diameter was approximately 1 cm, the animals were euthanized with CO2 overdose and the tumors excised. The procedure was repeated with 20 mice to generate a sufficient number of B16 melanoma cells with adequate transplantability.
On the day of tumor implantation, approximately 1×10^6 cells in 0.1 mL were subcutaneously injected on the right axillary area of each mouse. The day of tumor implantation was defined as Day 0.
On Day 3, the animals were randomly assigned into nine different weight-matched and tumor-size-matched groups. Dosing was started on Day 3 using the regimen according to Table 2.
From Day 1 to Day 15, mortality and moribundity were checked twice daily, the body weights were recorded once every 3 days, and tumors were measured using a caliper once every 3 days. At the end of the study (Day 16), the animals were euthanized by CO2 asphyxiation, and the tumors were excised and weighed.
Based on the tumor size, the tumor volume (TV) was calculated with the formula: [TV=(Length×Width×Width)/2]. And the percent inhibition (PI) of TV (PITV) was calculated according to the equation below:
PITV(%)=(TV vehicle−TVdrug treated)/TV vehicle×100
Inter-group comparison was performed in terms of tumor volume, tumor weight and body weight, using a student's t test. P values of less than 0.05 were considered to be statistically significant.

Compound: CN(C)/N=N/c1[nH]cnc1C(N)=O [DTIC, Dacarbazine]
- Tumor measurement L (length) (Day 3, animal F1): —
- Tumor measurement W (width) (Day 3, animal F1): —
- Tumor volume (Day 3, animal F1): 0.0000 cm^3
- Tumor measurement L (length) (Day 3, animal F2): —
- Tumor measurement W (width) (Day 3, animal F2): —
- Tumor volume (Day 3, animal F2): 0.0000 cm^3
- Tumor measurement L (length) (Day 3, animal F3): 0.20 cm
- Tumor measurement W (width) (Day 3, animal F3): 0.20 cm
- Tumor volume (Day 3, animal F3): 0.0040 cm^3
- Tumor measurement L (length) (Day 3, animal F4): —
- Tumor measurement W (width) (Day 3, animal F4): —
- Tumor volume (Day 3, animal F4): 0.0000 cm^3
- Tumor measurement L (length) (Day 3, animal F5): —
- Tumor measurement W (width) (Day 3, animal F5): —
- Tumor volume (Day 3, animal F5): 0.0000 cm^3
- Tumor measurement L (length) (Day 3, animal M1): —
- Tumor measurement W (width) (Day 3, animal M1): —
- Tumor volume (Day 3, animal M1): 0.0000 cm^3
- Tumor measurement L (length) (Day 3, animal M2): 0.10 cm
- Tumor measurement W (width) (Day 3, animal M2): 0.10 cm
- Tumor volume (Day 3, animal M2): 0.0005 cm^3
- Tumor measurement L (length) (Day 3, animal M3): —
- Tumor measurement W (width) (Day 3, animal M3): —
- Tumor volume (Day 3, animal M3): 0.0000 cm^3
- Tumor measurement L (length) (Day 3, animal M4): —
- Tumor measurement W (width) (Day 3, animal M4): —
- Tumor volume (Day 3, animal M4): 0.0000 cm^3
- Tumor measurement L (length) (Day 3, animal M5): 0.10 cm
- Tumor measurement W (width) (Day 3, animal M5): 0.10 cm
- Tumor volume (Day 3, animal M5): 0.0005 cm^3
- Tumor Volume (cm^3) (Mean ± SD) (Day 3): 0.001 ± 0.0012 cm^3
- PI (TV), percent inhibition of tumor volume (Day 3): −400.00%
- Tumor measurement L (length) (Day 6, animal F1): —
- Tumor measurement W (width) (Day 6, animal F1): —
- Tumor volume (Day 6, animal F1): 0.0000 cm^3
- Tumor measurement L (length) (Day 6, animal F2): —
- Tumor measurement W (width) (Day 6, animal F2): —
- Tumor volume (Day 6, animal F2): 0.0000 cm^3
- Tumor measurement L (length) (Day 6, animal F3): 0.10 cm
- Tumor measurement W (width) (Day 6, animal F3): 0.10 cm
- Tumor volume (Day 6, animal F3): 0.0005 cm^3
- Tumor measurement L (length) (Day 6, animal F4): —
- Tumor measurement W (width) (Day 6, animal F4): —
- Tumor volume (Day 6, animal F4): 0.0000 cm^3
- Tumor measurement L (length) (Day 6, animal F5): —
- Tumor measurement W (width) (Day 6, animal F5): —
- Tumor volume (Day 6, animal F5): 0.0000 cm^3
- Tumor measurement L (length) (Day 6, animal M1): —
- Tumor measurement W (width) (Day 6, animal M1): —
- Tumor volume (Day 6, animal M1): 0.0000 cm^3
- Tumor measurement L (length) (Day 6, animal M2): —
- Tumor measurement W (width) (Day 6, animal M2): —
- Tumor volume (Day 6, animal M2): 0.0000 cm^3
- Tumor measurement L (length) (Day 6, animal M3): —
- Tumor measurement W (width) (Day 6, animal M3): —
- Tumor volume (Day 6, animal M3): 0.0000 cm^3
- Tumor measurement L (length) (Day 6, animal M4): —
- Tumor measurement W (width) (Day 6, animal M4): —
- Tumor volume (Day 6, animal M4): 0.0000 cm^3
- Tumor measurement L (length) (Day 6, animal M5): —
- Tumor measurement W (width) (Day 6, animal M5): —
- Tumor volume (Day 6, animal M5): 0.0000 cm^3
- Tumor Volume (cm^3) (Mean ± SD) (Day 6): 0.000 ± 0.0002 cm^3
- PI (TV), percent inhibition of tumor volume (Day 6): 90.91%
- Tumor measurement L (length) (Day 9, animal F1): 0.20 cm
- Tumor measurement W (width) (Day 9, animal F1): 0.20 cm
- Tumor volume (Day 9, animal F1): 0.0040 cm^3
- Tumor volume (Day 9, animal F2): 0.0000 cm^3
- Tumor measurement L (length) (Day 9, animal F3): 0.10 cm
- Tumor measurement W (width) (Day 9, animal F3): 0.10 cm
- Tumor volume (Day 9, animal F3): 0.0005 cm^3
- Tumor measurement L (length) (Day 9, animal F4): 0.10 cm
- Tumor measurement W (width) (Day 9, animal F4): 0.10 cm
- Tumor volume (Day 9, animal F4): 0.0005 cm^3
- Tumor measurement L (length) (Day 9, animal F5): 0.10 cm
- Tumor measurement W (width) (Day 9, animal F5): 0.10 cm
- Tumor volume (Day 9, animal F5): 0.0005 cm^3
- Tumor measurement L (length) (Day 9, animal M1): 0.30 cm
- Tumor measurement W (width) (Day 9, animal M1): 0.30 cm
- Tumor volume (Day 9, animal M1): 0.0135 cm^3
- Tumor measurement L (length) (Day 9, animal M2): 0.30 cm
- Tumor measurement W (width) (Day 9, animal M2): 0.30 cm
- Tumor volume (Day 9, animal M2): 0.0135 cm^3
- Tumor measurement L (length) (Day 9, animal M3): 0.30 cm
- Tumor measurement W (width) (Day 9, animal M3): 0.30 cm
- Tumor volume (Day 9, animal M3): 0.0135 cm^3
- Tumor measurement L (length) (Day 9, animal M4): 0.30 cm
- Tumor measurement W (width) (Day 9, animal M4): 0.30 cm
- Tumor volume (Day 9, animal M4): 0.0135 cm^3
- Tumor measurement L (length) (Day 9, animal M5): 0.10 cm
- Tumor measurement W (width) (Day 9, animal M5): 0.10 cm
- Tumor volume (Day 9, animal M5): 0.0005 cm^3
- Tumor Volume (cm^3) (Mean ± SD) (Day 9): 0.006 ± 0.0065 cm^3
- PI (TV), percent inhibition of tumor volume (Day 9): 71.15%
- Tumor volume (Day 12, animal F1): 0.0625 cm^3
- Tumor measurements on Day 12, L (Day 12, animal F1): 0.50 cm
- Tumor measurements on Day 12, W (Day 12, animal F1): 0.50 cm
- Tumor volume (Day 12, animal F2): 0.0135 cm^3
- Tumor measurements on Day 12, L (Day 12, animal F2): 0.30 cm
- Tumor measurements on Day 12, W (Day 12, animal F2): 0.30 cm
- Tumor volume (Day 12, animal F3): 0.0135 cm^3
- Tumor measurements on Day 12, L (Day 12, animal F3): 0.30 cm
- Tumor measurements on Day 12, W (Day 12, animal F3): 0.30 cm
- Tumor volume (Day 12, animal F4): 0.1715 cm^3
- Tumor measurements on Day 12, L (Day 12, animal F4): 0.70 cm
- Tumor measurements on Day 12, W (Day 12, animal F4): 0.70 cm
- Tumor volume (Day 12, animal F5): 0.1350 cm^3
- Tumor measurements on Day 12, L (Day 12, animal F5): 0.3 cm
- Tumor measurements on Day 12, W (Day 12, animal F5): 0.30 cm
- Tumor volume (Day 12, animal M1): 0.1715 cm^3
- Tumor measurements on Day 12, L (Day 12, animal M1): 0.70 cm
- Tumor measurements on Day 12, W (Day 12, animal M1): 0.70 cm
- Tumor volume (Day 12, animal M2): 0.3645 cm^3
- Tumor measurements on Day 12, L (Day 12, animal M2): 0.90 cm
- Tumor measurements on Day 12, W (Day 12, animal M2): 0.90 cm
- Tumor volume (Day 12, animal M3): 0.5000 cm^3
- Tumor measurements on Day 12, L (Day 12, animal M3): 1.00 cm
- Tumor measurements on Day 12, W (Day 12, animal M3): 1.00 cm
- Tumor volume (Day 12, animal M4): 0.5000 cm^3
- Tumor measurements on Day 12, L (Day 12, animal M4): 1.00 cm
- Tumor measurements on Day 12, W (Day 12, animal M4): 1.00 cm
- Tumor volume (Day 12, animal M5): 0.0135 cm^3
- Tumor measurements on Day 12, L (Day 12, animal M5): 0.30 cm
- Tumor measurements on Day 12, W (Day 12, animal M5): 0.30 cm
- Tumor Volume (cm^3) (Mean ± SD) (Day 12): 0.195 ± 0.1932 cm^3
- PI (TV), percent inhibition of tumor volume (Day 12): 43.22%
- Tumor measurements on Day 15, L (Day 15, animal F1): 0.80 cm
- Tumor volumes on Day 15 (Day 15, animal F1): 0.2560 cm^3
- Tumor measurements on Day 15, W (Day 15, animal F1): 0.80 cm
- Tumor measurements on Day 15, L (Day 15, animal F2): 0.50 cm
- Tumor volumes on Day 15 (Day 15, animal F2): 0.0625 cm^3
- Tumor measurements on Day 15, W (Day 15, animal F2): 0.50 cm
- Tumor measurements on Day 15, L (Day 15, animal F3): 0.60 cm
- Tumor volumes on Day 15 (Day 15, animal F3): 0.1080 cm^3
- Tumor measurements on Day 15, W (Day 15, animal F3): 0.60 cm
- Tumor measurements on Day 15, L (Day 15, animal F4): 0.70 cm
- Tumor volumes on Day 15 (Day 15, animal F4): 0.1715 cm^3
- Tumor measurements on Day 15, W (Day 15, animal F4): 0.70 cm
- Tumor measurements on Day 15, L (Day 15, animal F5): 0.60 cm
- Tumor volumes on Day 15 (Day 15, animal F5): 0.1080 cm^3
- Tumor measurements on Day 15, W (Day 15, animal F5): 0.60 cm
- Tumor measurements on Day 15, L (Day 15, animal M1): 1.00 cm
- Tumor volumes on Day 15 (Day 15, animal M1): 0.5000 cm^3
- Tumor measurements on Day 15, W (Day 15, animal M1): 1.00 cm
- Tumor measurements on Day 15, L (Day 15, animal M2): 1.20 cm
- Tumor volumes on Day 15 (Day 15, animal M2): 0.8640 cm^3
- Tumor measurements on Day 15, W (Day 15, animal M2): 1.20 cm
- Tumor measurements on Day 15, L (Day 15, animal M3): 1.00 cm
- Tumor volumes on Day 15 (Day 15, animal M3): 0.5000 cm^3
- Tumor measurements on Day 15, W (Day 15, animal M3): 1.00 cm
- Tumor measurements on Day 15, L (Day 15, animal M4): 1.20 cm
- Tumor volumes on Day 15 (Day 15, animal M4): 0.8640 cm^3
- Tumor measurements on Day 15, W (Day 15, animal M4): 1.20 cm
- Tumor measurements on Day 15, L (Day 15, animal M5): 0.90 cm
- Tumor volumes on Day 15 (Day 15, animal M5): 0.3645 cm^3
- Tumor measurements on Day 15, W (Day 15, animal M5): 0.90 cm
- Tumor Volume (cm^3) (Mean ± SD) (Day 15): 0.380 ± 0.2991 cm^3
- PI (TV), percent inhibition of tumor volume (Day 15): 48.12%
